Test results as given in patent US11485713B2, “Androgen receptor modulators and methods for their use” (ESSA Pharma, Inc., priority 2018, dated 2022).

Tests used:
[1] = Microsomal stability assay, MLM; assay type: in vitro ADME; settings: mouse, pH 7.4, 1 μM test compound, 0.5 mg/mL liver microsomes protein, 37° C., 0-60 min, read-out: MLM +/− NADPH: Clint (μL/min/mg protein)
Description: (§1) Microsomal Stability Assay: Microsomal stability assay is a widely used in vitro model to characterize the metabolic conversion by phase I enzymes, such as cytochrome P450 (CYP) enzymes. Since metabolism is known to be highly variable in different species, microsomal stability assay is commonly run in multiple species. Metabolic stability of testing compound can be evaluated using human, rat, mouse, or other animal liver or intestine microsomes to predict intrinsic clearance.
(§2) The assay was carried out in 96-well microtiter plates at 37° C. Reaction mixtures (25 μL) contained a final concentration of 1 μM test compound, 0.5 mg/mL liver microsomes protein, and 1 mM NADPH and/or 1 mM UDPGA (with alamethicin) in 100 mM potassium phosphate, pH 7.4 buffer with 3 mM MgCl2. The incubation was done with N=1, but duplicate incubation at each time point can be prepared if necessary. At each of the time points (for example, 0, 15, 30, and 60 minutes), 150 μL of quench solution (100% acetonitrile with 0.1% formic acid) with internal standard was transferred to each well. Besides the zero minute controls, mixtures containing the same components except the NADPH can also be prepared as the negative control. Verapamil was included as a positive control to verify assay performance. Plates were sealed, vortexed, and centrifuged at 4° C. for 15 minutes at 4000 rpm. The supernatant is transferred to fresh plates for LC/MS/MS analysis.
(§3) Summarized conditions: [Compound]=1 μM, [LM]=0.5 mg/mL, [NADPH]=1 mM and/or [UDPGA]=1 mM, Buffer=100 mM Potassium Phosphate, pH 7.4 with 3 mM MgCl2, Time=0, 15, 30, and 60 min, and Temperature=37° C.
(§4) All samples were analyzed on LC/MS/MS using an AB Sciex API 4000 instrument, coupled to a Shimadzu LC-20AD LC Pump system. Analytical samples were separated using a Waters Atlantis T3 dC18 reverse phase HPLC column (20 mm×2.1 mm) at a flow rate of 0.5 mL/min. The mobile phase consisted of 0.1% formic acid in water (solvent A) and 0.1% formic acid in 100% acetonitrile (solvent B).
(§5) The extent of metabolism is calculated as the disappearance of the test compound, compared to the 0-min time incubation. Initial rates are calculated for the compound concentration and used to determine half-life (t½) values and subsequently, the intrinsic clearance (Clint). Clint=(0.693)(1/t½ (min))(g of liver/kg of body weight)(mL incubation/mg of microsomal protein)(45 mg of microsomal protein/g of liver weight)

[2] = Microsomal stability assay, HLM; assay type: in vitro ADME; settings: human, pH 7.4, 1 μM test compound, 0.5 mg/mL liver microsomes protein, 37° C., 0-60 min, read-out: HLM +/− NADPH: Clint (μL/min/mg protein)
Description: as §1, §2, §3, §4, §5

[3] = Hepatocyte stability assay, MH; assay type: in vitro ADME; settings: mouse, cryopreserved hepatocytes, 1 μM test compound, 0.5 million cells/mL hepatocytes, 37° C., 0-180 min, read-out: MH +/− NADPH: Clint (μL/min/million cells)
Description: Hepatocyte Stability Assay: The […] of in vitro intrinsic clearance (Clint) for drug candidates in the early discovery stage is common practice in the pharmaceutical industry. The Clint values of drug candidates can help to confirm whether metabolism is the main clearance pathway when it is compared with the total body clearance in vivo. Hepatocytes are among the routinely used in vitro systems for measuring clearance. Hepatocytes have been reported to retain most of the phase I and phase II metabolic activities, and therefore, it is a useful tool to estimate the intrinsic clearance for potential drug candidates.
Metabolic stability of testing compound were be evaluated using human and mouse hepatocytes and can also be use rat, mouse, or other animal hepatocytes to predict intrinsic clearance. Cryopreserved hepatocytes were removed from the liquid nitrogen tank and thawed in a 37° C. water bath. As soon as the cells pulled away from the vial wall, they were decanted into 48 ml of warm HT medium. Cells were centrifuged for four minutes at 420 rpm (50 g). After removing the supernatant, pellet was re-suspended in warm DMEM medium. Cell density was counted by a hemacytometer.
The assay was carried out in 96-well microtiter plates. Compounds were incubated for 0, 60, 120, and 180 minutes at 37° C. with hepatocytes. Reaction mixtures (50 μL) contained a final concentration of 1 μM test compound, 0.5 million cells/mL hepatocytes in the DMEM medium. At each of the time points (for example, 0, 1, 2, and 3 hours), 200 μL of quench solution (100% acetonitrile with 0.1% formic acid) with internal standard was transferred to each well. Midazolam was included as a positive control to verify assay performance. Plates were sealed and centrifuged at 4° C. for 15 minutes at 4000 rpm. The supernatant is transferred to fresh plates for LC/MS/MS analysis.
Summarized conditions (customizable): [Compound]=[…], Positive control: midazolam and/or naloxone, [Hepatocyte]=0.5 million cells/Ml, time=0, 60, 120, and 180 m t=37° C.
as §4, with “ABSciex” for “AB Sciex”
The extent of metabolism was calculated as the disappearance of the test compound, compared to the 0-min control reaction incubations. Initial rates were calculated for the compound concentration and used to determine t½ values and subsequently, the intrinsic clearance, Clint. Clint=(0.693)(1/t½ (min))(mL incubation/million cells)

[4] = tested on: LNCaP ARE-Luc; assay: Luciferase assay in LNCaP cell lysates (LNCaP ARE-Luc); assay type: cell-based; settings: Homo sapiens, Firefly Luciferase Assay System, read-out: LNCaP ARE-Luc % inhibition IC50 Ranges
Procedure: Lysates were thawed on ice then collected into V-bottom 96-well tissue culture plates. Lysates were centrifuged at 4° C. for 5 minutes at 4000 rpm. To measure luminescence of LNCaP cell lysates the Firefly Luciferase Assay System (Promega) was employed, according to manufacturer's protocol. Relative luminescence units (RLU) in cell lysates were detected for 10 seconds using Promega GoMax-Multi Detection Luminometer (Promega).
Statistical analyses were performed using GraphPad Prism (Version 6.01 for Windows; La Jolla, Calif., USA). Comparisons between treatment and control groups were compared using Two-Way ANOVA with post-hoc Dunnett's and Tukey's tests. Differences were considered statistically significant at P values less than 0.05. Densitometric quantification of relative AR levels was determined by Image.

Row | microsomal CLint at 1 μM [1] [µL/min/mg] | microsomal CLint at 1 μM [2] [µL/min/mg] | hepatocyte CLint at 1 μM [3] [µL/min/1e6 cells] | IC50 [4] [nM] | Compound
1 | ≥ 48 | ≥ 48 | ≥ 18 | – | COCC(=O)COc1ccc(C(C)(C)c2cc(Cl)c(OCC(C)(O)CCl)c(Cl)c2)cc1 (stereo not drawn) [Compound A60]
2 | ≥ 48 | ≥ 48 | ≥ 18 | ≥ 250 | COCC(=O)COc1ccc(C(C)(C)c2cc(Cl)c(OC[C@H](O)CCl)c(Cl)c2)cc1 [A56(S), (S)-1-(4-(2-(3,5-dichloro-4-(3-chloro-2-hydroxypropoxy)phenyl)propan-2-yl)phenoxy)-3-methoxypropan-2-one]
3 | ≥ 48 | ≥ 48 | ≥ 18 | ≥ 250 | CC(C)(c1ccc(OCC(=O)CS(C)(=O)=O)cc1)c1cc(Cl)c(OCCCCl)c(Cl)c1 [Compound A55, 1-(4-(2-(3,5-dichloro-4-(3-chloropropoxy)phenyl)propan-2-yl)phenoxy)-3-(methylsulfonyl)propan-2-one]
4 | ≥ 48 | ≥ 48 | ≥ 18 | – | COCC(=O)COc1ccc(C(C)(C)c2cc(Cl)c(OCCCCl)c(Cl)c2)cc1 [Compound A59]

Continued, compound first:

Row | Compound | microsomal CLint at 1 μM [1] [µL/min/mg] | microsomal CLint at 1 μM [2] [µL/min/mg] | hepatocyte CLint at 1 μM [3] [µL/min/1e6 cells] | IC50 [4] [nM]
5 | CC(C)(c1ccc(OCC(=O)CS(C)(=O)=O)cc1)c1cc(Cl)c(OCC(O)CCl)c(Cl)c1 (stereo not drawn) [Compound A54] | ≥ 48 | ≥ 48 | ≥ 18 | –
6 | CC(C)(c1ccc(OCC(=O)CNS(C)(=O)=O)cc1)c1cc(Cl)c(OCCCBr)c(Cl)c1 [Compound A61] | ≥ 48 | ≥ 48 | ≥ 18 | 100 to 250
7 | COCC(=O)COc1ccc(Cc2cc(Cl)c(OCC(O)CCl)c(Cl)c2)cc1 (stereo not drawn) [Compound A57] | ≥ 48 | ≥ 48 | ≥ 18 | –
8 | COCC(=O)COc1ccc(C(F)(F)c2cc(Cl)c(OCC(O)CCl)c(Cl)c2)cc1 (stereo not drawn) [Compound A58] | ≥ 48 | ≥ 48 | ≥ 18 | –
9 | CC(C)(c1ccc(OCC(=O)CNS(C)(=O)=O)cc1)c1cc(Cl)c(OC[C@H](O)CCl)c(Cl)c1 [A51(S), (S)—N-(3-(4-(2-(3,5-dichloro-4-(3-chloro-2-hydroxypropoxy)phenyl)propan-2-yl)phenoxy)-2-oxopropyl)methanesulfonamide] | – | ≥ 48 | ≥ 18 | < 100
10 | CC(C)(c1ccc(OCC(=O)CNS(C)(=O)=O)cc1)c1cc(Cl)c(OCCCCl)c(Cl)c1 [Compound A31, N-(3-(4-(2-(3,5-dichloro-4-(3-chloropropoxy)phenyl)propan-2-yl)phenoxy)-2-oxopropyl)methanesulfonamide] | – | ≥ 48 | ≥ 18 | < 100
